# Experimental data taken from US9750708B2 (The Regents of the University of California, priority 2006, dated 2017).
# How the values were obtained:
# [1] = tested on: mice with the gene mutation for Huntington's disease; conditions: mouse, in vivo; cited from earlier work
# [2] = tested on: leukocyte cystine; conditions: cited from earlier work
# [3] = tested on: leukocyte cystine; test: Leukocyte cystine levels after intraluminal delivery of cysteamine in patients with cystinosis; format: in vivo, human
# Description: (§1) Immediately proximal to the balloon was an infusion port (1 mm diameter) through which the drug was delivered. […] On day 1 of the study, the nasoenteric tube was inserted into the stomach. By day 3 of the study the tube had passed into the proximal small intestine (SI) just distal to the ligament of Treitz (confirmed fluoroscopically). The balloon was then inflated, and peristalsis propelled the tube distally. Tube position within the cecum was confirmed fluoroscopically on day 5 (day 7 in 4 patients because of slow transit). If the tube had migrated too far, it was retracted into the desired location.
# (§2) After an overnight fast (except for water) blood samples were taken at baseline and at varying intervals after intraluminal delivery of cysteamine. […] Gastrin was measured in picograms/mL with the Diagnostic Products Corporation (Los Angeles, Calif.) gastrin radioimmunoassay-assay kit. Leukocyte cystine levels were measured in nmol half-cystine per mg protein by the Cystine Determination Lab (La Jolla, Calif.).
# AOC is computationally analogous to area under the curve, but it is applied when values are predominantly decreasing below baseline values. Large AOC values reflect large decreases, and a negative AOC reflects a net increase in value. Main effects for site of delivery, time after delivery, and the interaction between site and time were tested, except just the site effect was tested for AOCs. In the absence of significant interaction when a main effect was detected, Tukey's honestly significant difference test (HSD) was applied to identify where differences occurred within a 5% family wise error rate. The Tukey HSD procedure controls for overall significance level when performing all pairwise comparisons.
# [4] = tested on: gastrin; test: Serum gastrin after intraluminal delivery of cysteamine (radioimmunoassay); format: in vivo, human
# Description: as §1, §2
# REML repeated measures analyses of variance were also performed as described above on gastrin levels. […] A 5% significance level was used without adjustment for all statistical testing.
# [5] = Plasma cysteamine after delivery of cysteamine through a nasoenteric tube into stomach, small intestine or cecum; format: in vivo; conditions: human, 10 mg/kg/dose of base, Mean plasma cysteamine Cmax
# Procedure: Adult control patients were recruited locally. […] None of the patients had undergone kidney transplantation. Baseline chemistry, Helicobacter pylori serologic study, complete blood count, and urinalysis were performed.
# as §1, §2
# Differences between means for the 3 sites were tested, plus group and group x site interaction effects for the combined groups. If a site effect was detected, Tukey's HSD was applied to determine which sites differed from each other.
# [6] = Symptoms after intraluminal cysteamine delivery; format: in vivo, human; conditions: cystinosis subject
# Description: as §1
# Only 2 patients (1 male, 1 female) with cystinosis reported regular GI symptoms before the study, and these had responded to acid-suppression therapy. […] No other symptoms were reported after any other cysteamine delivery in the children with cystinosis. There were no associated adverse events with tube placement or removal.
# [7] = children with cystinosis; cited from earlier work
compound,measurement,setting,value
"NCCSSCCN [Cystamine, cystamine]",Effect in mice with the gene mutation for Huntington's disease,[1],alleviate tremors and prolong life
NCCS [cysteamine],Period of activity,[2]; oral Cystagon capsules,5 to 6 h
same,Time leukocyte cystine level remained suppressed,[2]; single dose administered intravenously,more than 24 hours
same,Depletion of intracellular cystine,"[2]; taken regularly, measured in circulating white blood cells",up to 90%
same,Time leukocyte cystine levels remained at the 1-hour level,"[3]; after delivery, at 48 hours not returned to pre-cysteamine level",24 h
same,Time leukocyte cystine levels remained below pre-delivery levels,[3]; single dose of cysteamine into the small intestine (FIG. 3),up to 12 hours
same,Decrease in leukocyte cystine after cysteamine delivery,[3]; within an hour of delivery,dramatic decrease in leukocyte cystine
same,Gastrin level after gastric cysteamine,"[4]; 1 child with severe GI symptoms, 30 minutes after gastric delivery, baseline 70 pg/mL",121 pg/mL
same,"Gastrin levels, baseline and post-cysteamine (undetectable)","[4]; control group, more than half of the levels, any delivery site",< 25 pg/mL
same,Cmax,"[5]; other: infused through nasoenteric tube into cecum, combined cystinosis and control subjects, delivery into cecum",22.5 µM
same,Cmax,"[5]; other: infused through nasoenteric tube into cecum, control subjects, delivery into cecum",23.1 µM
same,Cmax,"[5]; other: infused through nasoenteric tube into cecum, cystinosis subjects, delivery into cecum",21.9 µM
same,Cmax,"[5]; other: infused through nasoenteric tube into small intestine, combined cystinosis and control subjects, delivery into small intestine",53.2 µM
same,Cmax,"[5]; other: infused through nasoenteric tube into small intestine, control subjects, delivery into small intestine",51.1 µM
same,Cmax,"[5]; other: infused through nasoenteric tube into small intestine, cystinosis subjects, delivery into small intestine",55.8 µM
same,Cmax,"[5]; other: infused through nasoenteric tube into stomach, combined cystinosis and control subjects, delivery into stomach",37.8 µM
same,Cmax,"[5]; other: infused through nasoenteric tube into stomach, control subjects, delivery into stomach",39.5 µM
same,Cmax,"[5]; other: infused through nasoenteric tube into stomach, cystinosis subjects, delivery into stomach",35.5 µM
same,Symptoms after infusion into the proximal small intestine,[6],did not have any symptoms
same,Symptoms after intragastric cysteamine,[6]; about 15 minutes after delivery,severe retching and emesis
COc1ccc2c(c1)c(CC(=O)O)c(C)n2C(=O)c1ccc(Cl)cc1 [indomethacin],Reduction of urine volume and liquid consumption,[7],about 30%
